Assay [1] deals with T1, SMARCA2-HiBiT HeLa cells (protein which is expressed from the SMARCA2 gene) (Homo sapiens, UniProt P51531).
T1 construct: protein which is expressed from the SMARCA2 and SMARCA4 genes; host or cells: HeLa (SMARCA2-HiBiT engineered line)
As to the kind of experiment: SMARCA2 degradation assay (HiBiT-fusion HeLa cell line, 24 h, luminescence). It is filed as cell-based. Here is the method: (§1) SMARCA2 and SMARCA4 Degradation Assay
(§2) Degradation of protein which is expressed from the SMARCA2 and SMARCA4 genes was monitored using engineered HiBiT-fusion HeLa cell lines from Promega. In brief, 384-well white opaque plates (Greiner) were seeded with SMARCA2-HiBiT or SMARCA4-HiBiT HeLa cells at 8,000 cells/well and incubated overnight at 37° C. to allow cell attachment. After overnight incubation, test compounds were added in a 10-point dilution series (typically 10 μM to 300 pM) using a TECAN D300e Digital Dispenser, and plates were subsequently incubated for 24 hours at 37° C. 24-hours post-treatment, protein levels were quantified with the addition of HiBiT lytic buffer, LgBiT protein, and HiBiT substrate, according to manufacturer's specifications. Plates were incubated on an orbital plate shaker for 10 minutes at room temperature. Resulting luminescent values were read out using a ClarioStar plate reader and used to construct dose-response curves and calculation of degradation DC50s (GraphPad Prism).
(§3) Activity of the tested compounds is provided in Table 4 below as follows: A=DC50<0.050 μM; B=0.05 μM<DC50<0.50 μM; C=<0.5 μM<DC50<5.0 μM; D=DC50>5.0 μM. For SMARCA2 and SMARCA4 degradation activity @1 μM, +++=>70%; ++=30-70%; +=<30%.

Assay [2] concerns the target T2, SMARCA4-HiBiT HeLa cells (protein which is expressed from the SMARCA4 gene) (Homo sapiens, UniProt P51532).
T2 construct: protein which is expressed from the SMARCA2 and SMARCA4 genes; host or cells: HeLa (SMARCA4-HiBiT engineered line)
As to the kind of experiment: SMARCA4 degradation assay (HiBiT-fusion HeLa cell line, 24 h, luminescence). The format is cell-based. Here is the method:
as §1, §2, §3
For orientation: The HiBiT peptide binds its large partner to form an active luciferase.

The structures appear in SMILES notation. A value given as a limit tells only on which side of the number the result lay.

Consider 8 molecules from patent US20260265238A1, “COMPOUNDS AND PHARMACEUTICAL COMPOSITIONS THAT DEGRADE SWI/SNF-RELATED MATRIX-ASSOCIATED ACTIN-DEPENDENT REGULATOR OF CHROMATIN SUBFAMILY A” (Plexium, Inc., priority 2023, published 2026).

T1 sequence (P51531 whole entry): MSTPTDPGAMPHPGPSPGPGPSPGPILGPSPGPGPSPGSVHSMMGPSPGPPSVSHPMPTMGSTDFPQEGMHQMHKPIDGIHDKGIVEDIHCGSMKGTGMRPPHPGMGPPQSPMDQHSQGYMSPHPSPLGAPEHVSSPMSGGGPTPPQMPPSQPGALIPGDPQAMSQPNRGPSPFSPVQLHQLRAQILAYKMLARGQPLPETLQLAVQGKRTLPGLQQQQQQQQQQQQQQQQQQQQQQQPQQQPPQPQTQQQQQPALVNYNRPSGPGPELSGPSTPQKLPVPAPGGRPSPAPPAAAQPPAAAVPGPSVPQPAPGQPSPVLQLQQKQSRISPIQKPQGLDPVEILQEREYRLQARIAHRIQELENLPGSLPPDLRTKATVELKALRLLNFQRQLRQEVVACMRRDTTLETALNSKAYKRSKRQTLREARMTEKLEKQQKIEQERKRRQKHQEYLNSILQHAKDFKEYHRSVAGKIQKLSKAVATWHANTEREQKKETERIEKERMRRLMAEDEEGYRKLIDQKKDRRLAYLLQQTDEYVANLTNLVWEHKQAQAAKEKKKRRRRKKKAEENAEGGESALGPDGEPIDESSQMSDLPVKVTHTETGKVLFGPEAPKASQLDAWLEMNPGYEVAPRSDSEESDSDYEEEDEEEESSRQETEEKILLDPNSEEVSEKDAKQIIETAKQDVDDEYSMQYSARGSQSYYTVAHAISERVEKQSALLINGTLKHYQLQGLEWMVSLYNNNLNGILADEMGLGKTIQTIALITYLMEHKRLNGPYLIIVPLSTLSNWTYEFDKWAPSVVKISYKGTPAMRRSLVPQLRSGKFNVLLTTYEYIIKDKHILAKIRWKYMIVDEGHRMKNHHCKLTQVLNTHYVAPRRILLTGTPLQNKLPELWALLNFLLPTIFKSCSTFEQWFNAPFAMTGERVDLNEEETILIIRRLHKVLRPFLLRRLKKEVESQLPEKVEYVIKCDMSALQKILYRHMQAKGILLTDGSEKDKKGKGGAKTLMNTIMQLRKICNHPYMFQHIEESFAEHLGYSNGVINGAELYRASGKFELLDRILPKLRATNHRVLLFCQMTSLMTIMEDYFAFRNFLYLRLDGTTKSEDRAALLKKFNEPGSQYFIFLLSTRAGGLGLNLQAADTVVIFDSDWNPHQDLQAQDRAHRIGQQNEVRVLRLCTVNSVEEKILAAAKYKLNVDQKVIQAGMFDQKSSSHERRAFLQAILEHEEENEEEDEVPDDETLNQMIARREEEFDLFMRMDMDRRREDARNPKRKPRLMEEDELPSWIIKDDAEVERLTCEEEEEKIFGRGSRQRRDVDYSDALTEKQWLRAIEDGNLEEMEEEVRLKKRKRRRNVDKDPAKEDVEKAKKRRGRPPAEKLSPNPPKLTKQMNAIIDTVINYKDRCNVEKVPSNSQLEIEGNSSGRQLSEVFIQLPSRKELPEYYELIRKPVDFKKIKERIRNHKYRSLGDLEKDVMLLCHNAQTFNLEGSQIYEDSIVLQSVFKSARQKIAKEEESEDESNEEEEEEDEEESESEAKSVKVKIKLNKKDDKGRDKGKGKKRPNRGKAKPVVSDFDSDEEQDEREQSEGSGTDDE
T2 sequence (P51532 whole entry): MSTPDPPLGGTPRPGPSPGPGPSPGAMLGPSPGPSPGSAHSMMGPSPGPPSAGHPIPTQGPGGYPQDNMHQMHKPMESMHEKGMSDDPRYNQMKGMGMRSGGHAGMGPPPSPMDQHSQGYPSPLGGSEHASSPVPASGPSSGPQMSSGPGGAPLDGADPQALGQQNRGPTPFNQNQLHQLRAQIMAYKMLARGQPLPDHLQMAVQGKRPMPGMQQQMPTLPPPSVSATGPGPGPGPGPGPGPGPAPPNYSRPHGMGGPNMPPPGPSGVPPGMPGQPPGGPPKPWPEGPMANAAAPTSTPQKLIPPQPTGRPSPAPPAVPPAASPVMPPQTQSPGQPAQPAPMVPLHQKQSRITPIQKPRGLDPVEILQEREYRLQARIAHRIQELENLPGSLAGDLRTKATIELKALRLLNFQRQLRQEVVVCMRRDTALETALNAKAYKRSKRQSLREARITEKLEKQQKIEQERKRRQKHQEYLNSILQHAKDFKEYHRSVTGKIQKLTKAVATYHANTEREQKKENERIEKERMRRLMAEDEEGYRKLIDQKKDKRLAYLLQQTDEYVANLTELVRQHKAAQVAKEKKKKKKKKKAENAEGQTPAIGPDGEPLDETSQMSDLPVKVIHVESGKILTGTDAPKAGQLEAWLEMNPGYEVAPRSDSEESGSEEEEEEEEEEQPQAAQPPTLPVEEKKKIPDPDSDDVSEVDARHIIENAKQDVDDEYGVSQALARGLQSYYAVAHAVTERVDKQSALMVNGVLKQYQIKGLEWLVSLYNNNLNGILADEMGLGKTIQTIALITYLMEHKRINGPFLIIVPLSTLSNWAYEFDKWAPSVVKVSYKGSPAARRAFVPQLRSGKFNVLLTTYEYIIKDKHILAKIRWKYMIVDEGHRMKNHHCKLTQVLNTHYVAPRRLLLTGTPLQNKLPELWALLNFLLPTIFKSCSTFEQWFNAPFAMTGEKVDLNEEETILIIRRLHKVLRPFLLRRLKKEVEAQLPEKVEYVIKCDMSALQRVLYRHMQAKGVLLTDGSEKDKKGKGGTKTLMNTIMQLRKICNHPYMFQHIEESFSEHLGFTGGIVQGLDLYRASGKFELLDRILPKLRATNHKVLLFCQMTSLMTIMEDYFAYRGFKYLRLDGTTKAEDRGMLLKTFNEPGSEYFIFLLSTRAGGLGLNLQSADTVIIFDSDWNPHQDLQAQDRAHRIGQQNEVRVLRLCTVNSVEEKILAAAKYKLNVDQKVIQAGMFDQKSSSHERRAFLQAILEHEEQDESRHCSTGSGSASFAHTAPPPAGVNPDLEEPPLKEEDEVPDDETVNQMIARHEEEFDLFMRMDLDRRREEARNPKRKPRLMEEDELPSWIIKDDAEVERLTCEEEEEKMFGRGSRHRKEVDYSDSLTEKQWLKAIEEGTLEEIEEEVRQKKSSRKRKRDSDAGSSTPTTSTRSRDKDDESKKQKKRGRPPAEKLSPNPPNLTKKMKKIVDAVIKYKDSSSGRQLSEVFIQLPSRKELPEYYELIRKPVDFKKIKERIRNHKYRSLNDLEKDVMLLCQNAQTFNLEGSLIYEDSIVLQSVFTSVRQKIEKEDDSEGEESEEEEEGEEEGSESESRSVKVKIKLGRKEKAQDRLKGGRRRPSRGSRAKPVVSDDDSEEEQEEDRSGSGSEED

As for `C[C@H]1CN(c2ccnc(C#CCNC(=O)c3cc4ncccn4n3)n2)C[C@H](C)N1c1cc(-c2ccccc2O)nnc1N` [Compound P-16, N-(3-(4-((3S,5S)-4-(3-amino-6-(2-hydroxyphenyl)pyridazin-4-y1)-3,5-dimethylpiperazin-1-yl)pyrimidin-2-yl)prop-2-yn-1-yl)pyrazolo[1,5-a]pyrimidine-2-carboxamide], the DC50 in assay [1] and in assay [2] was 500 to 5000 nM throughout. Moreover, the “SMARCA2 % Degradation @ 1 μM” value in assay [1] (@ 1 μM) was “+ (+=<30%)”. Moreover, in assay [2] (@ 1 μM), the inhibition (in general, the change of the read-out against control, counted positive when it falls) at 1 µM is less than 30%.

As to `C[C@@H]1CCN(c2cc(-c3ccccc3O)nnc2N)CCN1c1ccnc(C=CCN(C)CC(F)F)n1` [Compound P-163, o-{5-[(R)-4-(2-{3-[(2,2-difluoroethyl)-N-methylamino]-1-propenyl}-4-pyrimidinyl)-5-methyl-1,4-diazepan-1-yl]-6-amino-3-pyridazinyl}phenol], the DC50 in assay [1] and in assay [2] was 50 to 500 nM each time. For the same molecule, the “SMARCA2 % Degradation @ 1 μM” value in assay [1] (@ 1 μM) was “++ (++=30-70%)”. The inhibition at 1 µM in assay [2] (@ 1 μM) was less than 30%.

For `C[C@@H]1CCN(c2cc(-c3ccccc3O)nnc2N)CCN1c1ccnc(C#CCN(C)C)c1C#N` [Compound P-406, 4-{(R)-4-[3-amino-6-(0-hydroxyphenyl)-4-pyridazinyl]-7-methyl-1,4-diazepan-1-yl}-2-[3-(dimethylamino)-1-propynyl]nicotinonitrile], the DC50 in assay [1] and in assay [2] was 500 to 5000 nM throughout. Besides, the “SMARCA2 % Degradation @ 1 μM” value in assay [1] (1 μM) is reported as “++ (++=30-70%)”. In addition, the inhibition at 1 µM in assay [2] (1 μM) was 30 to 70%.

For `C[C@@H]1CCN(c2cc(-c3ccccc3O)nnc2N)CCN1c1nc(C#CCN(C)C)ncc1F` [Compound P-226, o-{5-[(R)-4-{2-[3-(dimethylamino)-1-propynyl]-5-fluoro-4-pyrimidinyl}-5-mcthyl-1,4-diazcpan-1-yl]-6-amino-3-pyridazinyl}phenol], the DC50 in assay [1] and in assay [2] was less than 50 nM in each case. Also, in assay [1] (@ 1 μM), the “SMARCA2 % Degradation @ 1 μM” value was “++ (++=30-70%)”. Moreover, the inhibition at 1 µM in assay [2] (@ 1 μM) is less than 30%.

With `Cn1ccc(NCC#Cc2nccc(N3CC4CCC(C3)N4c3cc(-c4ccccc4O)nnc3N)n2)n1` [Compound P-130, 2-(6-amino-5-(3-(2-(3-((1-methyl-1H-pyrazol-3-yl)amino)prop-1-yn-1-yl)pyrimidin-4-yl)-3,8-diazabicyclo[3.2.1]octan-8-yl)pyridazin-3-yl)phenol], the DC50 in assay [1] and in assay [2] was 50 to 500 nM throughout. Further, in assay [1] (@ 1 μM), the “SMARCA2 % Degradation @ 1 μM” value is listed as “+++ (+++=>70%)”. The same molecule had an inhibition at 1 µM in assay [2] (@ 1 μM) of 30 to 70%.

For the molecule `Nc1nnc(-c2ccccc2O)cc1N1CCN(c2ccnc(C#CCCNC(=O)c3cc4ncccn4n3)n2)CC1` [Compound P-94, N-(4-(4-(4-(3-amino-6-(2-hydroxyphenyl)pyridazin-4-yl)piperazin-1-yl)pyrimidin-2-yl)but-3-yn-1-yl)pyrazolo[1,5-a]pyrimidine-2-carboxamide], the DC50 in assay [1] and in assay [2] was 50 to 500 nM each time. In addition, the “SMARCA2 % Degradation @ 1 μM” value in assay [1] (@ 1 μM) is “++ (++=30-70%)”. Moreover, the inhibition at 1 µM in assay [2] (@ 1 μM) is less than 30%.

As for `CN(C)CC#Cc1nccc(N2C3CC2CN(c2cc(-c4ccccc4O)nnc2N)C3)n1` [Compound P-206, o-[6-amino-5-(6-{2-[3-(dimethylamino)-1-propynyl]-4-pyrimidinyl}-3,6-diazabicyclo[3.1.1]hcpt-3-yl)-3-pyridazinyl]phenol], the DC50 (usually the concentration at which degradation of the target reaches its halfway point) in assay [1] was less than 50 nM; in assay [2] it was 50 to 500 nM. Besides, in assay [1] (@ 1 μM), the “SMARCA2 % Degradation @ 1 μM” value is “+++ (+++=>70%)”. The inhibition at 1 µM in assay [2] (@ 1 μM) was greater than 70%.

With `C[C@@H]1CCN(c2cc(-c3ccccc3O)nnc2N)CCN1c1ccnc(C#CCN2C3CCC2COC3)n1` [Compound P-160, o-{5-[(R)-5-methyl-4-(2-{3-(3-oxa-8-azabicyclo[3.2.1]oct-8-yl)-1-propynyl}-4-pyrimidinyl)-1,4-diazepan-1-yl]-6-amino-3-pyridazinyl}phenol], the 50% degradation concentration (DC50) in assay [1] and in assay [2] was 50 to 500 nM each time. In addition, in assay [1] (@ 1 μM), the “SMARCA2 % Degradation @ 1 μM” value is “+++ (+++=>70%)”. Besides, the inhibition at 1 µM in assay [2] (@ 1 μM) lay in the range of 30 to 70%.
